According to patent US10501452B2, “Lactam compound derivative and application thereof” (NHWA PHARMA. CORPORATION, priority 2015, dated 2019):
Like-named read-outs stand apart in the source and are kept apart here.

Columns and labels:
5-HT1A = 5-HT1A (Rattus norvegicus (Rat), UniProt P19327); experiment: 5-HT1A receptor binding assay (3H-8-OH-DPAT); conditions: for Ki: rat cortex membrane, 3H-8-OH-DPAT
Procedure: Rats were decapitated. […] Incubation at 37° C. was conducted for 10 min. […] Centrifugation was conducted and repeated 3 times.
(§1) Materials for the Receptor Binding Assay

5-HT7 receptor = 5-HT7 receptor (Rattus norvegicus (Rat), UniProt P32305); experiment: 5-HT7 receptor binding assay ([3H]-5-CT); conditions: for Ki: rat hypothalamus membrane, [3H]-5-CT
5-HT7 receptor, sequence (P32305 whole entry): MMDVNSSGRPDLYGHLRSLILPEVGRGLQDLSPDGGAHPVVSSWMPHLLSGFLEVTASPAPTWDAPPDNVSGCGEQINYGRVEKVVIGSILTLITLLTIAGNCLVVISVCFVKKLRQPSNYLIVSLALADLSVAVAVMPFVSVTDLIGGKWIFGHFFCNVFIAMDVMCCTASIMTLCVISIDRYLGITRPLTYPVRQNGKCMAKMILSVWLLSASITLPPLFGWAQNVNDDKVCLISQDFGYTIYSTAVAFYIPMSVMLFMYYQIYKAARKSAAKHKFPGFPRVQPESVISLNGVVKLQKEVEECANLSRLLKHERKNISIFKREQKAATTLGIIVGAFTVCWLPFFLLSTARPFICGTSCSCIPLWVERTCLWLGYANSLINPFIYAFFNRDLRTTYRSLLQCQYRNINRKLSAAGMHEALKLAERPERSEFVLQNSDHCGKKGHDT
Procedure: Adult SD rats were decapitated. […] Centrifugation was conducted (repeated 3 times).
as §1

Histamine H1 receptor = Histamine H1 receptor (Cavia porcellus (Guinea pig), UniProt P31389); experiment: Histamine H1 receptor binding assay (3H-pyrilamine); conditions: for Ki: guinea pig cerebellum membrane, 3H-pyrilamine
Histamine H1 receptor, sequence (P31389 whole entry): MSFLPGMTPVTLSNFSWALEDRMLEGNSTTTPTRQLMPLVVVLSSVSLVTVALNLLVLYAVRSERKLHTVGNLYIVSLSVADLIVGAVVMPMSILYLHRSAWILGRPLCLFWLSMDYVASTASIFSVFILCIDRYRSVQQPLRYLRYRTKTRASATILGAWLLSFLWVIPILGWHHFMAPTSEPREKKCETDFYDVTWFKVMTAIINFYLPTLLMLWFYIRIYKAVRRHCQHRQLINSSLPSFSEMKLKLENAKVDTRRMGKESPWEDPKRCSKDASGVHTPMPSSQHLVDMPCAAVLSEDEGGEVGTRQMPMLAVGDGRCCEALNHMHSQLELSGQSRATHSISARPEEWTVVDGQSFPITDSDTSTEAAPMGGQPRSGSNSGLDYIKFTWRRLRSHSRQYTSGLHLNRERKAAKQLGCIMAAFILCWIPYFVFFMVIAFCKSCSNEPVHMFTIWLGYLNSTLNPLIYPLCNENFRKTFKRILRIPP
Procedure: Preparation of Histamine H1 Receptor Membrane
Guinea pigs were decapitated. […] Vortex mixer was used for blending. Centrifugation was conducted at 48000 g, 4° C. for 10 min. The supernatant was discarded to give pellets, and buffer was added again for washing. Centrifugation was conducted and repeated 3 times.
as §1
(2) 100 μL of membrane preparation was added into each reaction tube.

[1] = tested on: MK-801 induced high activity in mice; experiment: MK-801 induced high activity; type: in vivo; conditions: for ED50: Mus musculus, po; for improvement of MK-801 induced high activity (in words): compared with risperidone
Procedure: Ascorbic acid was provided by Sinopharm Chemical Reagent Co. Ltd.
Subsequently, the spontaneous activities of the mice of each group in 90 min were measured.

[2] = tested on: Apomorphine induced clambering in mice; experiment: Apomorphine induced clambering assay of mice; type: in vivo; conditions: for ED50: Mus musculus, po, read-out: Apomorphine induced clambering (ED50, po, mg/kg); for improvement of apomorphine induced clambering symptoms (in words): compared with risperidone
Procedure: Healthy KM mice, male, with body weight of 18-22 g, were provided by Qinglongshan Animal Cultivation Center, Nanjing.
Apomorphine provided by Sigma Company was dissolved in 0.9% NaCl (containing 0.1% vitamin C) before use, and was freshly formulated before use.
Vitamin C, F20061113, was provided by Sinopharm Chemical Reagent Co. Ltd.
Instruments: self-made clambering cage, chronograph.
Procedures: apomorphine induced clambering assay of mice
After 5 min of adaptation, the behavior of the mice at 10-11, 20-21, and 30-31 min after the injection of apomorphine were observed and scored.

[3] = tested on: conditioned avoidance response in rats; experiment: animal or person; type: in vivo, rat; conditions: for ED50: po; for Therapeutic index: LD50 versus CAR ED50; for performance in the rat CAR model (in words): compared with risperidone
Procedure: […] of SD rats, male.
Firstly, training the rats with shuttle box:
(1) The rats were allowed for adaption for five minutes;
(2) Conditioned stimulus (CS, light and noise) were started and lasted for 20 s, and at the tenth second, unconditioned stimulus (US, 1.5 mA electric shock) was performed and lasted for 10 s;
(3) Training was conducted 30 times per day for 9 days. The interval between two trainings was set randomly ranged from 20 to 30 s;
(4) Observation indicators:
The animal ran to another compartment during the conditioning stimulus was recorded as “avoidance”;
Animals ran to another compartment during the electric shock was recorded as “escape”;
Grouping of the qualified rats: the qualified rats were divided into negative control group, positive drug groups of each dosage, and compound groups of each dosage according to the principle of randomization, 8 in each group.
Administration Method: Corresponding solvent was administered intragastrically to the negative control group; corresponding dosages of positive drugs were administered intragastrically to the positive drug groups of each dosage; and corresponding dosages of compounds were administered intragastrically to the compound groups of each dosage.
CAR Assay: A CAR assay was performed 1 hour after intragastric administration. The method was the same as the CAR training. The observation indicators were the number of avoidances, the number of escapes, and the number of escape failures.
Statistical Data Processing: Assay data are presented as mean±standard deviation (Mean±SD), the comparison was performed by a combination of one-way ANOVA with post-hoc LSD. The ED50 was calculated using the probit method.

Catalepsy assay = conditions: both, Kunming, mouse, in vivo, po
Procedure: (§2) The durations of the mice to maintain the posture with the two forepaws on the bars were recorded, and 30 s of spasticity without moving was considered as the positive response. In the case the forepaws of the mice were not put down persistently, the observation was terminated at 60 s. The numbers of animals with positive response in each of the compound dosage groups were counted.

catalepsy in mice = experiment: Catalepsy assay
Procedure: as §2

[4] = Acute toxicity study (mice); type: in vivo; conditions: both sexes, KM, mouse, in vivo, po, intragastric
Procedure: (§3) Example 41: Acute Toxicity Study
(§4) Limit test of sequential assay: KM rats or mice (half male and half female) were randomly divided into several groups (with 2-5 mice in each group), which were respectively the 2000 mg/kg groups for each compound, and the solvent group. 0.2 ml/10 g were administered intragastrically. The deaths of the animals in 3 days were observed. In the case 3 or more animals survived in 3 days without notable abnormity in their life states, the observation was continued until the assay was completed in 7 days. In the case 3 or more animals died in 3 days, the method of median lethal dose was used to determine the LD50.
(§5) Pre-assay for the method of the median lethal dose: KM mice (half male and half female) were randomly divided into several groups (with 4 mice in each group), which were respectively the 500 mg/kg, 200 mg/kg, 50 mg/kg groups for each compound, and the solvent group. 0.2 ml/10 g were administered intragastrically, and the deaths of the animals in 1-3 days were observed.
(§6) Results: The compound of the invention has relatively low acute toxicity.

[5] = Acute toxicity study (rats); conditions: both sexes, KM, in vivo, po, 2000 mg/kg; rat, intragastric
Procedure: as §3, §4, §6

D2 = D2 (Rattus norvegicus (Rat), UniProt P61169); experiment: D2 receptor binding assay (3H-Spiperone); conditions: read-out: Ki (nM) D2; rat striatum membrane, 3H-Spiperone
D2, sequence (P61169 whole entry): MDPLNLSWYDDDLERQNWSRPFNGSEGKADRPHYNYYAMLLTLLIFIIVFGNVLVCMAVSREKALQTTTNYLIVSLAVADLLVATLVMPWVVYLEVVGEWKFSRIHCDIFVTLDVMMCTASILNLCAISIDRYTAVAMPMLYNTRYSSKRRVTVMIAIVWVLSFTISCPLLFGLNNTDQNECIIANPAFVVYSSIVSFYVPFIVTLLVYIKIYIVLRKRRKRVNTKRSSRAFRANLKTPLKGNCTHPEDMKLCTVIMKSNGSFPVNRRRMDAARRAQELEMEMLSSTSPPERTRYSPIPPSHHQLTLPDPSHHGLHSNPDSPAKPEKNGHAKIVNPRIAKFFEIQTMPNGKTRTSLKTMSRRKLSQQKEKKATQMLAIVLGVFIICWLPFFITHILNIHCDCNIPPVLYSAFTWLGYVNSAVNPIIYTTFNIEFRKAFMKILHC
Procedure: Rats were decapitated. Striatum of brain was rapidly taken on ice, 3 ml of buffer (0.05 M Tris-HCl buffer, containing NaCl 120 mM, KCl 5 mM, MgCl2 1 mM, CaCl2 1 mM) was added, homogenization was conducted, and then 5 ml of buffer was then added. The weight of the homogenized tubes were adjusted using a balance, and centrifugation was conducted. The supernatant was discarded, and 3 ml of buffer was added. Vortex mixer was used for blending, and then 5 ml of buffer was added. Centrifugation was conducted and repeated 3 times. The supernatant was discarded after centrifugation was completed, and the pellets were stored at −80° C. for future use.
Beckman LS-6500 Multi-function Liquid Scintillation Counter was used.
(1) The prepared membrane was applied with appropriate amount of buffer, and homogenizer was used for evenly dispersing. 15 tubes were mixed into a 100 ml container, and appropriate amount of buffer was added to give 50 ml of membrane suspension, which was reserved for future use.
(§7) (2) 100 μL of membrane preparation and 100 μL of buffer were added into each reaction tube.
(3) 100 μL of buffer was added into the total binding tube (TB), 100 μL of Butaclamol (final concentration 10^−5M) was added into the nonspecific binding tube (NB), 100 μL of the test compound (final concentration 10^−5M) was added into the specific binding tube (SB) of each test compound.
(5) Each of the reaction tubes was incubated at 37° C. for 20 min. After the reaction was completed, the bound ligands were rapidly filtered under reduced pressure, and sufficiently washed with ice-chilled assay buffer. The filter was taken out and put into a 3 ml scintillation vial, and 2 ml of toluene scintillation cocktail was added and blended.
(6) The scintillation vials were put into Liquid Scintillation Counter for counting. Inhibition rate(I%)=(Total binding tube cpm−compound cpm)/(Total binding tube cpm−nonspecific binding tube cpm)×100%
Each assay for the compounds was conducted in duplicate for two individual tests.

5-HT2A = 5-HT2A (Rattus norvegicus (Rat), UniProt P14842); experiment: 5-HT2A receptor binding assay ([3H]-Ketanserin); conditions: for Ki: read-out: Ki (nM) 5-HT2A, rat cortex membrane, [3H]-Ketanserin
5-HT2A, sequence (P14842 whole entry): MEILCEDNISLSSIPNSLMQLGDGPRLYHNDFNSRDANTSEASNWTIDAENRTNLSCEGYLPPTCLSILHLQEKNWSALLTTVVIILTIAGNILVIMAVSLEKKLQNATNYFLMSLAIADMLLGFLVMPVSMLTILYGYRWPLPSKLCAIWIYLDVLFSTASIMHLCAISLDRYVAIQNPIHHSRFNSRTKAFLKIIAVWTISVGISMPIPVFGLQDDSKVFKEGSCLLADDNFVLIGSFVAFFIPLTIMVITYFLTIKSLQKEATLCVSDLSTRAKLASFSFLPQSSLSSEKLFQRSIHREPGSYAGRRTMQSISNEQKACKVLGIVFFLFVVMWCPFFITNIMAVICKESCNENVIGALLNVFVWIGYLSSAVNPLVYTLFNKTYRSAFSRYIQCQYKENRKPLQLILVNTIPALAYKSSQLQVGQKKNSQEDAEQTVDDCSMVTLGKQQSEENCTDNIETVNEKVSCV
Procedure: Rats were decapitated. Cortex of brain was rapidly taken on ice, and 3 ml of buffer (0.05 M Tris-HCl buffer: 6.05 g of Tris was dissolved in 1000 ml of double-distilled water, and concentrated HCl was used to adjust to pH 7.5) was added, homogenization was conducted, and then 5 ml of buffer was added. Incubation was conducted at 37° C. for 10 min, the weight of the tubes were adjusted using a balance after incubation. Centrifugation was conducted at 12000 rpm, 4° C. for 20 min, the supernatant was discarded, and 3 ml of buffer was added. Vortex mixer was used for blending, and then 5 ml of buffer was added. Centrifugation was conducted (repeated 3 times). After the centrifugation, the supernatant was discarded, and the pellets were stored at −80° C. for future use.
(1) The prepared membrane was applied with buffer, and homogenizer was used for evenly dispersing. 15 tubes were mixed into a 100 ml container, and appropriate amount of buffer was added to give 50 ml of membrane suspension, which was reserved for future use.
as §7
(3) 100 μL of buffer was added into the total binding tube (TB), 100 μL of Methysergide (final concentration 10^−5M) was added into the nonspecific binding tube (NB), 100 μL of the test compound (final concentration 10^−5M) was added into the specific binding tube (SB) of each test compound.
(5) Each of the reaction tubes was incubated at 37° C. for 15 min. After the reaction was completed, the bound ligands were rapidly filtered under reduced pressure, and sufficiently washed with ice-chilled assay buffer. The filter was taken out and put into a 3 ml scintillation vial, and 2 ml of toluene scintillation cocktail was added and blended.
(6) The scintillation vial were put into Liquid Scintillation Counter for counting. Inhibition rate(I%)=(Total binding tube cpm−compound cpm)/(Total binding tube cpm−nonspecific binding tube cpm)×100%

mice = experiment: Acute toxicity study (mice); type: in vivo; conditions: intragastric
Procedure: as §3, §4, §5, §6

[6] = rat, intragastric, 1 hour after administration, read-out: Rat CAR ED50
[7] = both, Kunming (KM), mouse, in vivo

5-HT1A, sequence (P19327 whole entry): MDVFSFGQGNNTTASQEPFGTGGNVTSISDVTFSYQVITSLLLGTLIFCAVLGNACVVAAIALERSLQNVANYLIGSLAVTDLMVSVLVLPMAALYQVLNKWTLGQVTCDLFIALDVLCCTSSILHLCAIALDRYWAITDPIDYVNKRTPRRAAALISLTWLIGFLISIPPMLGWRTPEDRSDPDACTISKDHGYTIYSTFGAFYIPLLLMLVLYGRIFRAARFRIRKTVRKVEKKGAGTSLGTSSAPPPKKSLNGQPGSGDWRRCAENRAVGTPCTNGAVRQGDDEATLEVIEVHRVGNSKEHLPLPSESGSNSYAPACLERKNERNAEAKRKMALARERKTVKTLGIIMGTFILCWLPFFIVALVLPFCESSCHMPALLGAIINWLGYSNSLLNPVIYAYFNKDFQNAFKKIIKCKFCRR

Row | SMILES | Ki (5-HT1A) | Ki (5-HT7 receptor) | Ki (Histamine H1 receptor) | ED50 [1] | improvement of MK-801 induced high activity (in words) [1] | ED50 ([2]; mice) | improvement of apomorphine induced clambering symptoms (in words) ([2]; mice) | ED50 [3, 6] | Therapeutic index ([3]; rat) | performance in the rat CAR model (in words) ([3]; rat) | ED50 (Catalepsy assay) | Catalepsy/Apomorphine induced clambering (catalepsy in mice; mice, ratio of ED50 values) | Catalepsy/MK-801 induced high activity (catalepsy in mice; mice, ratio of ED50 values) | EPS in effective dosage (in words) (catalepsy in mice; mouse, in vivo) | LD50 [4] | LD50 at 3 days [5] | Ki (D2) | Ki (5-HT2A) | also measured
1 | COc1ccccc1N1CCN(CCCOc2ccc3c(c2)C(=O)N(C)CC3)CC1 [Compound 22, 7-(3-(4-(2-methoxyphenyl)piperazin-1-yl)propoxy)-2-methyl-3,4-dihydroisoquinolin-1(2H)-one] | 6.5 nM | 28.1 nM | > 2000 nM | 0.12 mg/kg | significantly improve | 0.19 mg/kg | effectively improve | 0.49 mg/kg | 404 | markedly better than risperidone | 52 mg/kg | 273 | 433 | do not cause EPS | 311 mg/kg | 198 mg/kg | 9.6 nM | 3.2 nM | 
2 | CN1CCc2ccc(OCCCN3CCC(c4noc5cc(F)ccc45)CC3)cc2C1=O [Compound 5, 7-(3-(4-(6-fluorobenzo[d]isoxazol-3-yl)piperidin-1-yl)propoxy)-2-methyl-3,4-dihydroisoquinolin-1(2H)-one] | 2.4 nM | 5.9 nM | > 2000 nM |  |  |  | effectively improve |  |  | markedly better than risperidone | 35 mg/kg |  |  | do not cause EPS | 258 mg/kg | 168 mg/kg |  | 0.1 nM | affinity for 5-HT1A (in words) (5-HT1A): strong affinities; affinity for 5HT7 (in words) (5-HT7 receptor): high affinity; affinity for H1 (in words) (Histamine H1 receptor): low affinity; ED50 [2]: 0.05 mg/kg; ED50 ([3]; Rattus norvegicus, 1 h, read-out: Rat CAR ED50 (mg/kg)): 0.32 mg/kg; Catalepsy/Apomorphine induced clambering (catalepsy in mice; [7]): 700; Catalepsy/MK-801 induced high activity (catalepsy in mice; [7]): 875; LD50 (po, mg/kg) (mice): 257 mg/kg; affinity for 5-HT2A (in words) (5-HT2A): strong affinities
3 | CN1CCc2ccc(OCCCN3CCN(c4ncccn4)CC3)cc2C1=O [Compound 24, 2-methyl-7-(3-(4-(pyrimidin-2-yl)piperazin-1-yl)propoxy)-3,4-dihydroisoquinolin-1(2H)-one] | 8.8 nM | 9.9 nM | > 2000 nM | 0.18 mg/kg |  | 0.22 mg/kg |  | 1.02 mg/kg | 143 |  | 47 mg/kg | 214 | 261 |  | 190 mg/kg | 146 mg/kg | 11.9 nM | 7.5 nM | 
4 | CN1CCc2ccc(OCCCN3CCN(c4nsc5ccccc45)CC3)cc2C1=O [Compound 14, 7-(3-(4-(benzo[d]isothiazol-3-yl)piperazin-1-yl)propoxy)-2-methyl-3,4-dihydroisoquinolin-1(2H)-one] | 8.8 nM | 16.8 nM | 1360 nM | 0.07 mg/kg | significantly improve | 0.06 mg/kg | effectively improve | 0.65 mg/kg | 238 | markedly better than risperidone | 32 mg/kg | 533 | 457 | do not cause EPS | 202 mg/kg | 155 mg/kg | 6.9 nM | 7.2 nM | 
